From patent US12134620B2 (ARAXES PHARMA LLC, priority 2018, dated 2024)

Each compound was assayed against T1, KRAS G12C 1-169, his-tagged protein, GDP-loaded (Homo sapiens, UniProt P01116, G12C) (assay: Biochemical assay: covalent modification of KRAS G12C, analysed by mass spectrometry (RapidFire/TOF or Q-Exactive)). Conditions: Modification activity, modification percentage from MS peak intensities.
T1 construct: KRAS G12C 1-169, his-tagged protein, GDP-loaded; His tag
Format: binding
In short: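 Covalent adduct formation was quantified by intact-protein mass spectrometry, either TOF or C4 LC-Q Exactive Plus, as percent modified versus unmodified protein after deconvolution. Compounds at 8 or 32 μM final were incubated with 0.5 or 2 μM GDP-bound KRAS G12C(1-169)-His in Hepes/NaCl/MgCl2 buffer before acid quench.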
Also: time not given here.

How did the Binding % turn out when C=CC(=O)N1CC2(CCN(c3cnc(OCCc4ccccc4)c(-c4c(C)ccc5[nH]ncc45)c3C#N)C2)C1 [Compound I-221, 5-(2-acryloyl-2,6-diazaspiro[3.4]octan-6-yl)-3-(5-methyl-1H-indazol-4-yl)-2-phenethoxyisonicoti-nonitrile] was run?
The Binding % was “++ (++ indicates binding activity from 50 to 85%)”.

For C=CC(=O)N1CC2(CCN(c3nc(OC[C@@H]4CCCN4C)nc(-c4cc(O)ccc4C)c3C#N)C2)C1 [Compound I-22, (S)-4-(2-acryloyl-2,6-diazaspiro[3.4]octan-6-yl)-6-(5-hydroxy-2-methylphenyl)-2-((1-methylpyrrolidin-2-yl)methoxy)pyrimidine-5-carbonitrile], which Binding % is on record?
The Binding % was “+ (+ indicates binding activity greater than 0% and up to 50%)”.

Which Binding % does the source give for C=CC(=O)N1CC2(CCN(c3nc(OC[C@@H]4CCCN4C)nc(-c4cccc5ccccc45)c3C#N)C2)C1 [Compound I-101, (S)-4-(2-acryloyl-2,6-diazaspiro[3.4]octan-6-yl)-2-((1-methylpyrrolidin-2-yl)methoxy)-6-(naphthalen-1-yl)pyrimidine-5-carbonitrile] here?
Its Binding % is “+ (+ indicates binding activity greater than 0% and up to 50%)”.

How did the Binding % turn out when C=CC(=O)N1CC2(CCN(c3ncnc(-c4c(C)ccc5cn[nH]c45)c3C#N)CC2)C1 [Compound I-237, 4-(2-acryloyl-2,7-diazaspiro[3.5]ononan-7-yl)-6-(6-methyl-1H-indazol-7-yl)pyrimidine-5-carbonitrile] was run?
Its Binding % is “+ (+ indicates binding activity greater than 0% and up to 50%)”.

How did the Binding % turn out when CC#CC(=O)N1CC2(CCN(c3cncc(-c4c(C)ccc5[nH]ncc45)c3C#N)C2)C1 [Compound I-272, 3-(2-(but-2-ynoyl)-2,6-diazaspiro[3.4]octan-6-yl)-5-(5-methyl-1H-indazol-4-yl)isonicotinonitrile] was run?
Its Binding % is “+ (+ indicates binding activity greater than 0% and up to 50%)”.

For C=CC(=O)N1CC2(CCN(c3nc(OC[C@@H]4CCCN4C)nc(-c4c(C)ccc5[nH]cnc45)c3C#N)C2)C1 [Compound I-29, 4-(2-acryloyl-2,6-diazaspiro[3.4]octan-6-yl)-6-(5-methyl-1H-benzo[d]imidazol-4-yl)-2-(((S)-1-methylpyrrolidin-2-yl)methoxy)pyrimidine-5-carbonitrile], which Binding % is on record?
The Binding % was “+ (+ indicates binding activity greater than 0% and up to 50%)”.

C=CC(=O)N1CC2(CCN(c3nc(N4CCC[C@H]4CO)nc(-c4c(C)ccc5[nH]ncc45)c3C#N)C2)C1 [Compound I-210, 4-(2-acryloyl-2,6-diazaspiro[3.4]octan-6-yl)-2-((S)-2-(hydroxymethyl)pyrro-lidin-1-yl)-6-(5-methyl-1H-indazol-4-yl)pyrimidin-5-carbonitrile] was tested. Which Binding % did it give?
The Binding % was “+ (+ indicates binding activity greater than 0% and up to 50%)”.

With C=CC(=O)N1CC2(CCN(c3nc(-n4ccnc4)nc(-c4c(C)ccc5[nH]ncc45)c3C#N)C2)C1 [Compound I-11, 4-(2-acryloyl-2,6-diazaspiro[3.4]octan-6-yl)-2-(1H-imidazol-1-yl)-6-(5-methyl-1H-indazol-4-yl)pyrimidine-5-carbonitrile] as the compound, how does the Binding % read?
Its Binding % is “+++ (+++ indicates binding activity greater than 85%)”.

C=CC(=O)N1CC2(CCN(c3nc(N4CCOCC4)nc(-c4c(C)ccc5[nH]ncc45)c3F)C2)C1 [Compound I-118, 1-(6-(5-fluoro-6-(5-methyl-1H-indazol-4-yl)-2-morpholinopyrimidin-4-yl)-2,6-diazaspiro[3.4]octan-2-yl)prop-2-en-1-one] was tested. Which Binding % did it give?
The Binding % was “++ (++ indicates binding activity from 50 to 85%)”.

For C=CC(=O)N1CC2(CCN(c3nccc(-c4c(C)ccc5[nH]ncc45)n3)C2)C1 [Compound I-275, 1-(6-(4-(5-methyl-1H-indazol-4-yl)pyrimidin-2-yl)-2,6-diazaspiro[3.4]octan-2-yl)prop-2-en-1-one], which Binding % is on record?
Its Binding % is “+ (+ indicates binding activity greater than 0% and up to 50%)”.

C=CC(=O)N1CC2(CCN(c3ncnc(N4CCCC4CO)c3C#N)C2)C1 (centres unmarked) [Compound I-246, 4-(2-acryloyl-2,6-diazaspiro[3.4]octan-6-yl)-6-(2-(hydroxymethyl)pyrro-lidin-1-yl)pyrimidine-5-carbonitrile] was tested. Which Binding % did it give?
Its Binding % is “+ (+ indicates binding activity greater than 0% and up to 50%)”.

Which Binding % does the source give for C=CC(=O)N1CC2(CCN(c3nc(N4CCC[C@@H]4CO)nc(-c4c(C)ccc5[nH]ncc45)c3C#N)C2)C1 [Compound I-209, 4-(2-acryloyl-2,6-diazaspiro[3.4]octan-6-yl)-2-((R)-2-(hydroxymethyl)pyrro-lidin-1-yl)-6-(5-methyl-1H-indazol-4-yl)pyrimidine-5-carbonitrile] here?
Its Binding % is “++ (++ indicates binding activity from 50 to 85%)”.

How did the Binding % turn out when C=CC(=O)N1CC2(CCN(c3nc(OC[C@@H]4CCCN4C)nc(-c4cccc5c4OC(F)(F)O5)c3C#N)C2)C1 [Compound I-17, (S)-4-(2-acryloyl-2,6-diazaspiro[3.4]octan-6-yl)-6-(2,2-difluorobenzo[d][1,3]dioxol-4-yl)-2-((1-methylpyrrolidin-2-yl)methoxy)pyrimidine-5-carbonitrile] was run?
The Binding % was “+ (+ indicates binding activity greater than 0% and up to 50%)”.

With CC#CC(=O)N1CC2(CCN(c3nc(N4CCOCC4)nc(-c4c(C)ccc5[nH]ncc45)c3C#N)C2)C1 [Compound I-84, 4-(2-(but-2-ynoyl)-2,6-diazaspiro[3.4]octan-6-yl)-6-(5-methyl-1H-indazol-4-yl)-2-morpholinopyrimidine-5-carbonitrile] as the compound, how does the Binding % read?
The Binding % was “+ (+ indicates binding activity greater than 0% and up to 50%)”.

C=CC(=O)N1CC2(CCN(c3nc(OC[C@@H]4CCCN4C)nc(NCc4cccnc4)c3C#N)C2)C1 [Compound I-18, (S)-4-(2-acryloyl-2,6-diazaspiro[3.4]octan-6-yl)-2-((1-methylpyrrolidin-2-yl)methoxy)-6-((pyridin-3-ylmethyl)amino)pyri-midine-5-carbonitrile] was tested. Which Binding % did it give?
Its Binding % is “+ (+ indicates binding activity greater than 0% and up to 50%)”.

C#Cc1c(-c2c(C)ccc3[nH]ncc23)ncnc1N1CCC2(CN(C(=O)C=C)C2)C1 [Compound I-268, 1-(6-(5-ethynyl-6-(5-methyl-1H-indazol-4-yl)pyrimidin-4-yl)-2,6-diazaspiro[3.4]octan-2-yl)prop-2-en-1-one] was tested. Which Binding % did it give?
Its Binding % is “+ (+ indicates binding activity greater than 0% and up to 50%)”.

For C=CC(=O)N1CC2(CCN(c3ncnc(-c4c(C)ccc5[nH]ncc45)c3C(=O)N(C)C)C2)C1 [Compound I-254, 4-(2-acryloyl-2,6-diazaspiro[3.4]octan-6-yl)-N,N-dimethyl-6-(5-methyl-1H-indazol-4-yl)pyrimidine-5-carboxamide], which Binding % is on record?
Its Binding % is “+ (+ indicates binding activity greater than 0% and up to 50%)”.

Which Binding % does the source give for C=CC(=O)N1CC2(CCN(c3cnc(Cc4ccccc4)c(-c4c(C)ccc5cnn(C)c45)c3C#N)C2)C1 [Compound I-224] here?
Its Binding % is “++ (++ indicates binding activity from 50 to 85%)”.

With C=CC(=O)N1CC2(CCN(c3nc(N4CCOCC4)nc(-c4c(C)ccc5[nH]nc(C)c45)c3C#N)C2)C1 [Compound I-78, 4-(2-acryloyl-2,6-diazaspiro[3.4]octan-6-yl)-6-(3,5-dimethyl-1H-indazol-4-yl)-2-morpholinopyrimidine-5-carbonitrile] as the compound, how does the Binding % read?
Its Binding % is “+++ (+++ indicates binding activity greater than 85%)”.

For C=CC(=O)N1CC2(CCN(c3ncnc(-c4c(C)ccc5[nH]ncc45)c3CO)C2)C1 [Compound I-251, 1-(6-(5-(hydroxymethyl)-6-(5-methyl-1H-indazol-4-yl)pyrimidin-4-yl)-2,6-diazaspiro[3.4]octan-2-yl)prop-2-en-1-one], which Binding % is on record?
Its Binding % is “+ (+ indicates binding activity greater than 0% and up to 50%)”.

With CC#CC(=O)N1CC2(CCN(c3cncc(-c4c(C)ccc5cnn(C)c45)c3C#N)C2)C1 [Compound I-271, 3-(2-(but-2-ynoyl)-2,6-diazaspiro[3.4]octan-6-yl)-5-(1,6-dimethyl-1H-indazol-7-yl)isonicotinonitrile] as the compound, how does the Binding % read?
The Binding % was “+ (+ indicates binding activity greater than 0% and up to 50%)”.

Which Binding % does the source give for C=CC(=O)N1CC2(CCN(c3cc(-c4c(C)ccc5[nH]ncc45)ncn3)C2)C1 [Compound I-229, 1-(6-(6-(5-methyl-1H-indazol-4-yl)pyrimidin-4-yl)-2,6-diazaspiro[3.4]octan-2-yl)prop-2-en-1-one] here?
Its Binding % is “+ (+ indicates binding activity greater than 0% and up to 50%)”.

How did the Binding % turn out when C=CC(=O)N1CC2(CCN(c3ncnc(-c4c(C)ccc5[nH]ncc45)c3O)C2)C1 [Compound I-245, 1-(6-(5-hydroxy-6-(5-methyl-1H-indazol-4-yl)pyrimidin-4-yl)-2,6-diazaspiro[3.4]octan-2-yl)prop-2-en-1-one] was run?
The Binding % was “+ (+ indicates binding activity greater than 0% and up to 50%)”.

How did the Binding % turn out when C=CC(=O)N1CC2(CCN(c3nc(OCc4cccc(C)n4)nc(-c4c(C)ccc5cnn(C)c45)c3C#N)C2)C1 [Compound I-170, 4-(2-acryloyl-2,6-diazaspiro[3.4]octan-6-yl)-6-(1,6-dimethyl-1H-indazol-7-yl)-2-((6-methylpyridin-2-yl)methoxy)pyrimidine-5-carbonitrile] was run?
The Binding % was “++ (++ indicates binding activity from 50 to 85%)”.

C=CC(=O)N1CC2(CCN(c3nc(OC[C@@H]4CCCN4C)nc(-n4cnc5ccccc54)c3C#N)C2)C1 [Compound I-38, (S)-4-(2-acryloyl-2,6-diazaspiro[3.4]octan-6-yl)-6-(1H-benzo[d]imidazol-1-yl)-2-((1-mehtylpyrrolidin-2-yl)methoxy)pyrimidine-5-carbonitrile] was tested. Which Binding % did it give?
Its Binding % is “+ (+ indicates binding activity greater than 0% and up to 50%)”.

C=CC(=O)N1CC2(CCN(c3ncnc(-c4c(C)ccc5[nH]ncc45)c3N3CCCC3)C2)C1 [Compound I-261, 1-(6-(6-(5-methyl-1H-indazol-4-yl)-5-(pyrrolidin-1-yl)pyrimidin-4-yl)-2,6-diazaspiro[3.4]octan-2-yl)prop-2-en-1-one] was tested. Which Binding % did it give?
The Binding % was “+ (+ indicates binding activity greater than 0% and up to 50%)”.
